What all share (assay): MIC, liquid turbidimetric microtiter broth method
What all share (format): cell-based

Assay [1] concerns Streptococcus viridans CL 2943. The following applies: CL2943. An excerpt: (§1) The compounds of formula (II) will show antibacterial activity against a range of aerobic Gram positive and negative bacteria as shown in the following Table. The assay employs a liquid turbidimetric microtiter method for determination of the minimum inhibitory concentration (MIC) in broth media. […] The MIC is generally not an absolute value but rather a concentration range that falls within a two-fold dilution limit. Generally, twelve two-fold dilutions of the test compound are employed with the initial concentration set at 128 mcg/ml.

Assay [2] relates to Steptococcus pneumoniae CL 2883.
Text: as §1

The test system of another assay is Escherichia coli MB 4926. The following applies: MB4926.
Text: as §1

In brackets after ≈: the same amount, converted by molar mass. Where only a bound is given, the exact number is not on record here.

We go through 1 molecule from patent US5202434A, “8a-aza-8a-homoerythromycin lactams” (Merck & Co., Inc., priority 1992, dated 1993).

In general, MIC refers to the least concentration at which growth counts as inhibited. A low value points to inhibition by little substance. Turning to `CC[C@H]1OC(=O)[C@H](C)[C@@H](O[C@H]2C[C@@](C)(OC)[C@@H](O)[C@H](C)O2)[C@H](C)[C@@H](O[C@@H]2O[C@H](C)C[C@H](N(C)C)[C@H]2O)[C@](C)(O)C[C@@H](C)NC(=O)[C@H](C)[C@@H](O)[C@]1(C)O` [8aaza-8a-homoerythromycin A, 8a-Aza-8a-homoerythromycin A], the values for the MIC (in assay [1]; in assay [2]; against Escherichia coli MB 4926) were 4 µg/mL (≈ 5.34 µM), no more than 0.06 µg/mL and 4 µg/mL (≈ 5.34 µM), respectively.
